US20250115669A1, “FGFR1/KLB Targeting Agonistic Antigen-Binding Proteins and Conjugates Thereof with GLP-1R Agonistic Peptides” (SANOFI, priority 2020, published 2025)

Experiments:
[1] = NHP study of Ab0335 (SAR18) versus 16H7 (SAR16) in high-fat diet-induced obese cynomolgus monkeys; type: in vivo, Cynomolgus monkey (Macaca fascicularis); conditions: for body weight compared to baseline values (value prior start of treatment) / food intake: obese cynomolgus monkeys; for body weight (in words): SAR16 1 mg/kg, SAR18 low- and high-dose; for food intake: especially lunch (apple), lesser impact on dinner (HFD); for plasma triglyceride (TG) values: over the whole study period
Experimental: Both were tested as single administration in the most relevant animal model that reflects the intended human population. Monkeys are a desirable species to examine the potential effects of drug candidates because of the similarity of their absorption, distribution, metabolism, and excretion profile compared to that of humans. The cynomolgus monkey is selected as the test species of choice over other lower mammalian species for more meaningful and translatable results because it is closely related to humans, both phylogenetically and physiologically. Thus, the pharmacokinetic and pharmacodynamics of varying doses of the compounds were explored in the high-fat diet-induced obese and insulin resistance cynomolgus monkey model.
Cynomolgus monkey (Macaca fascicularis) was selected as the test species of choice for more meaningful results that were translatable to humans. More than 50 male monkeys were trained to identify 40 HFD induced obese monkeys for the study.
They all fulfilled the following metabolic criteria: • weight at least 8 kg, age at least 8 years, fasting insulin >55 μU/mL (in comparison lean monkeys of same age range: weight 5 to 8 kg, fasting glucose ˜70 mg/dL, and fasting insulin ˜[…]), HbA1c >4%, triglycerides >1.3 mmol/L, LDL >5 mmol/L.
The monkeys were individually housed in species- and size appropriate metabolic stainless-steel caging with ad libitum access to water and under controlled environmental conditions with room temperature of 18° C. to 29° C., relative humidity of 30% to 70%, and a minimum of 10 air changes per hour. A time-controlled lighting system provided a regular 12-hour light/12-hour dark diurnal cycle. Cages were cleaned at regular intervals. The monkeys had three meals per day with a daily energy intake of ˜680 kcal (˜2.85 MJ). All food was withdrawn at 5:00 PM so that monkeys were fasted overnight. Monkeys were provided with enrichment toys or devices at all times. […] Each batch of monkey chow was delivered with an accompanying certificate of analysis detailing nutritional composition and levels of specified contaminants (e.g., heavy metals, aflatoxin, and insecticides). Ad libitum access to water through the main system was suspended on days in which water intake was quantified.
There was a run-in period during which monkeys were injected subcutaneously with vehicle once weekly. Food intake (calculated as TEI) and water intake were measured daily along with once-weekly body weight evaluation and one-time baseline value determination for metabolic biomarkers, safety biomarkers, IV glucose tolerance test (IVGTT), and profile for glucose, insulin, and plasma lipids.
For the dosing period 40 trained monkeys (n=10 per group) were selected and stratified for their body weight, fat composition and triglycerides in a four-arm design. All treatments, including a vehicle treated control group were administered subcutaneously on days +1, +19 and +37 and monitored closely for 8 weeks followed by a 4-week observation wash-out period. The dosing period was designed as a four-arm study, and monkeys were treated with either vehicle, SAR16, or SAR18.
The SAR16-treated monkeys were dosed at 1 mg/kg on day +1, day +19, and day +37. The SAR18-treated monkeys were dosed in the low-dose arm at 1 mg/kg on day +1, day +19, and day +37. SAR18 was further dosed in the high-dose arm at 3 mg/kg on day +1, day +19, and day +37.
Other parameters were also measured during the study, including food intake, body fat, plasma ketone bodies, as well as, on blood glucose control (glucose profile, fed, fasting plasma glucose and during ivGTT). One group received the vehicle. The compounds were administered subcutaneously (SC) (12 weeks “evaluation phase” plus run-out) to obese male cynomolgus macaques (Macaca fascicularis).
The SAR16-treated monkeys were dosed 3 times on day +1, day +19, and day +37 at 1 mg/kg. […]

[2] = Plasma concentrations and PK during three subcutaneous administrations in obese cynomolgus monkeys; type: in vivo, Cynomolgus monkey (Macaca fascicularis); conditions: subcutaneous doses of 1 mg/kg, male obese Cynomolgus monkeys
Experimental: Specifically, plasma concentrations and pharmacokinetic parameters were analyzed during a treatment of three subsequent subcutaneous administrations of 1 and 3 mg/kg in solution to male obese Cynomolgus monkeys. The exposure to both tested antibodies after subcutaneous doses of 1 mg/kg […] were similar. Moreover, plasma concentrations of both compounds were detected up to the end of sampling (i.e. 336 and 504 hours after the 2nd and the 3rd dose, respectively).

Row | Substance | body weight compared to baseline values (value prior start of treatment) ([1]; 1 mg/kg SC on day +1, +19, +37) [%] | body weight (in words) [1] | food intake [1] | plasma triglyceride (TG) values [1] | exposure [2] | body weight compared to baseline values (value prior start of treatment) ([1]; 3 mg/kg SC (high dose) on day +1, +19, +37) [%]
1 | 16H7: anti FGFR1c/KLB monoclonal antibody of WO 2011/071783, IgG2 backbone; HC SEQ ID NO: 1, LC SEQ ID NO: 2 [Ab 16H7] | 86.5±1.6 | Significant reductions in body weight | Reduction of food intake | quite robustly reduced | similar | 
2 | Ab0335: IgG4 PE; 16H7 VL (N25S, D49S, D50A, D91E, N93E); 16H7 VH (M34V, I83T, D109E); HC SEQ ID NO: 39, LC SEQ ID NO: 46 | 94.5±1.8 | Significant reductions in body weight | Reduction of food intake | quite robustly reduced | similar | 89.9±1.7
